Structures can show the parent of a compound that is named as a salt.

The test system of the first assay is HIV. The assay can be described thus: MT4 assay: antiviral HIV activity in MT-4 cells. Format: cell-based. The note with it: Human immunodeficiency virus 1, MT4, 96 h, read-out: HIV MT4 Assay IC50 (μM), HTLV-1 transformed cell line MT-4; read-out 96 hours later with cell titer glo; 10 point dose response. The method, then: Antiviral HIV activity and cytotoxicity values for compounds of the invention from Table 1 were measured in parallel in the HTLV-1 transformed cell line MT-4 based on the method previously described (Hazen et al., 2007, In vitro antiviral activity of the novel, tyrosyl-based human immunodeficiency virus (HIV) type 1 protease inhibitor brecanavir (GW640385) in combination with other antiretrovirals and against a panel of protease inhibitor-resistant HIV (Hazen et al., “In vitro antiviral activity of the novel, tyrosyl-based human immunodeficiency virus (HIV) type 1 protease inhibitor brecanavir (GW640385) in combination with other antiretrovirals and against a panel of protease inhibitor-resistant HIV”, Antimicrob. Agents Chemother. 2007, 51: 3147-3154; and Pauwels et al., “Sensitive and rapid assay on MT-4 cells for the detection of antiviral compounds against the AIDS virus”, J. of Virological Methods 1987, 16: 171-185).
Luciferase activity was measured 96 hours later by adding a cell titer glo (Promega, Madison, Wis.). Percent inhibition of cell protection data was plotted relative to no compound control. Under the same condition, cytotoxicity of the compounds was determined using cell titer Glo™ (Promega, Madison, Wis.). IC50s were determined from a 10 point dose response curve using 3-4-fold serial dilution for each compound, which spans a concentration range>1000 fold.
These values are plotted against the molar compound concentrations using the standard four parameter logistic equation: y=((Vmax*x^n)/(K^n+x^n))+Y2
Y2=minimum y n=slope factor
Vmax=maximum y x=compound concentration [M]
In general terms: ATP-based viability assays read luminescence as a measure of living cells.
For `Cc1nc2c(ccn2Cc2cccc(OC(F)(F)F)c2)c(-c2ccc3c(c2)CCCO3)c1C(OC(C)(C)C)C(=O)O` (centres unmarked) [Example 60, 2-(tert-butoxy)-2-(4-(chroman-6-yl)-6-methyl-1-(3-(trifluoromethoxy)benzyl)-1H-pyrrolo[2,3-b]pyridin-5-yl)acetic acid], the IC50 (usually the concentration needed to halve the response being measured) came out at 0.181 µM. Still for that read-out and setting: the same measure for `Cc1cc(F)ccc1Cn1ccc2c(-c3ccc4c(c3C)CCCO4)c([C@H](OC(C)(C)C)C(=O)O)c(C)nc21` [Example 125, (2S)-2-(tert-butoxy)-2-(1-(4-fluoro-2-methylbenzyl)-6-methyl-4-(5-methylchroman-6-yl)-1H-pyrrolo[2,3-b]pyridin-5-yl)acetic acid]: 0.003 µM; for `Cc1ccc(-c2c(C(OC(C)(C)C)C(=O)O)c(C)nc3c2ccn3C2CCCCC2)cc1` (centres unmarked) [Example 73, 2-(tert-Butoxy)-2-[1-cyclohexyl-6-methyl-4-(4-methylphenyl)-1H-pyrrolo[2,3-b]pyridin-5-yl]acetic acid]: 1.31 µM; for `Cc1nc2c(ccn2[C@@H](C)c2ccc(F)cc2)c(-c2ccc3c(c2)CCCO3)c1C(OC(C)(C)C)C(=O)O` (some centres unmarked) [Example 83]: 0.123 µM. On the same count and under the same terms, the same measure for `Cc1ccc(-c2c([C@H](OC(C)(C)C)C(=O)O)c(C)nc3c2ccn3Cc2ccc(F)cc2F)cc1` [Example 37, (S)-2-(tert-butoxy)-2-(1-(2,4-difluorobenzyl)-6-methyl-4-(p-tolyl)-1H-pyrrolo[2,3-b]pyridin-5-yl)acetic acid]: 0.07 µM; for `Cc1ccc(Cn2ccc3c(-c4ccc5c(c4)CCCO5)c(C(OC(C)(C)C)C(=O)O)c(C)nc32)cc1F` (centres unmarked) [Example 35, 2-(tert-butoxy)-2-(4-(chroman-6-yl)-1-(3-fluoro-4-methylbenzyl)-6-methyl-1H-pyrrolo[2,3-b]pyridin-5-yl)acetic acid]: 0.42 µM; for `Cc1ccc(-c2c(C(OC(C)(C)C)C(=O)O)c(C)nc3c2ccn3Cc2ccc(F)cc2F)cc1` (centres unmarked) [Example 24, 2-(tert-butoxy)-2-(1-(2,4-difluorobenzyl)-6-methyl-4-(p-tolyl)-1H-pyrrolo[2,3-b]pyridin-5-yl)acetic acid]: 0.125 µM. Same read-out and setting: to `Cc1nc2c(c3c(n2C2CC2)CCCC3)c(-c2ccc3c(c2C)CCCO3)c1C(OC(C)(C)C)C(=O)O` (centres unmarked) [Example 128, 2-(tert-butoxy)-2-(9-cyclopropyl-2-methyl-4-(5-methylchroman-6-yl)-6,7,8,9-tetrahydro-5H-pyrido[2,3-b]indol-3-yl)acetic acid] belongs 0.06 µM.

`Cc1nc2c(ccn2Cc2ccc(F)c(F)c2)c(-c2ccc3ncsc3c2)c1[C@H](OC(C)(C)C)C(=O)O` [Example 117, (S)-2-(4-(Benzo[d]thiazol-6-yl)-1-(3,4-difluorobenzyl)-6-methyl-1H-pyrrolo[2,3-b]pyridin-5-yl)-2-(tert-butoxy)acetic acid, Trifluoroacetic acid salt]: the IC50 stood at 0.036 µM. For `Cc1ccc(-c2c(C(OC(C)(C)C)C(=O)O)c(C)nc3c2ccn3Cc2cccc(Cl)c2F)cc1` (centres unmarked) [Example 22, 2-(tert-butoxy)-2-(1-(3-chloro-2-fluorobenzyl)-6-methyl-4-(p-tolyl)-1H-pyrrolo[2,3-b]pyridin-5-yl)acetic acid], the IC50 came out at 0.86 µM. In the case of `Cc1nc2c(ccn2CC2CCOCC2)c(-c2ccc3c(c2)CCCO3)c1C(OC(C)(C)C)C(=O)O` (centres unmarked) [Example 67, 2-(tert-butoxy)-2-(4-(chroman-6-yl)-6-methyl-1-((tetrahydro-2H-pyran-4-yl)methyl)-1H-pyrrolo[2,3-b]pyridin-5-yl)acetic acid], the IC50 came to 0.59 µM.

Consider `COc1ccc(F)c(F)c1Cn1ccc2c(-c3ccc(C)cc3)c(C(OC(C)(C)C)C(=O)O)c(C)nc21` (centres unmarked) [Example 46, 2-(tert-butoxy)-2-(1-(2,3-difluoro-6-methoxybenzyl)-6-methyl-4-(p-tolyl)-1H-pyrrolo[2,3-b]pyridin-5-yl)acetic acid], for which the 50% inhibitory concentration (IC50) is 0.1 µM. Regarding `Cc1nc2c(ccn2Cc2c(F)cccc2Cl)c(-c2ccc3c(c2)CCCO3)c1C(OC(C)(C)C)C(=O)O` (centres unmarked) [Example 56, 2-(tert-butoxy)-2-(1-(2-chloro-6-fluorobenzyl)-4-(chroman-6-yl)-6-methyl-1H-pyrrolo[2,3-b]pyridin-5-yl)acetic acid], the IC50 was 0.025 µM. The same measure, in the same setting: to `Cc1nc2c(c(-c3ccc4c(c3C)CCCO4)c1[C@H](OC(C)(C)C)C(=O)O)CCN2Cc1cccc(F)c1F` (atropisomer, axis not shown; (M)) [Example 119] belongs 0.009 µM. `Cc1nc2c(ccn2Cc2ccc(F)c(F)c2)c(-c2ccc(F)c(Cl)c2)c1[C@H](OC(C)(C)C)C(=O)O` [Example 105, (S)-2-(tert-Butoxy)-2-(4-(3-chloro-4-fluorophenyl)-1-(3,4-difluorobenzyl)-6-methyl-1H-pyrrolo[2,3-b]pyridin-5-yl)acetic acid]: the IC50 is 1.42 µM. The same measure, in the same setting: to `Cc1nc2c(ccn2Cc2ccc(F)c(F)c2)c(-c2ccc3c(c2)C(C)(C)CO3)c1[C@H](OC(C)(C)C)C(=O)O` [Example 123, (S)-2-(tert-butoxy)-2-(1-(3,4-difluorobenzyl)-4-(3,3-dimethyl-2,3-dihydrobenzofuran-5-yl)-6-methyl-1H-pyrrolo[2,3-b]pyridin-5-yl)acetic acid] belongs 2.86 µM. Turning to `Cc1ccc(-c2c([C@H](OC(C)(C)C)C(=O)O)c(C)nc3c2ccn3Cc2ccc(F)cc2)cc1` [Example 2, (S)-2-(tert-butoxy)-2-(1-(4-fluorobenzyl)-6-methyl-4-(p-tolyl)-1H-pyrrolo[2,3-b]pyridin-5-yl)acetic acid], the concentration for half-maximal inhibition (IC50) is 0.08 µM. With `Cc1ccc(-c2c(C(OC(C)(C)C)C(=O)O)c(C)nc3c2ccn3Cc2cc(F)c(F)c(F)c2)cc1` (centres unmarked) [Example 8, 2-(tert-butoxy)-2-(6-methyl-4-(p-tolyl)-1-(3,4,5-trifluorobenzyl)-1H-pyrrolo[2,3-b]pyridin-5-yl)acetic acid], the IC50 was 0.16 µM. With `Cc1nc2c(ccn2Cc2cccc(F)c2F)c(-c2cc(Cl)c3c(c2C)CCCO3)c1[C@H](OC(C)(C)C)C(=O)O` (atropisomer, axis not shown; (M)) [Example 98, (2S(M))-2-(tert-butoxy)-2-(4-(8-chloro-5-methylchroman-6-yl)-1-(2,3-difluorobenzyl)-6-methyl-1H-pyrrolo[2,3-b]pyridin-5-yl)acetic acid], the half-inhibitory concentration (IC50) was 0.181 µM. Take `Cc1ccc(-c2c([C@H](OC(C)(C)C)C(=O)O)c(C)nc3c2ccn3Cc2cc(F)ccc2F)cc1` [Example 7, (S)-2-(tert-butoxy)-2-(1-(2,5-difluorobenzyl)-6-methyl-4-(p-tolyl)-1H-pyrrolo[2,3-b]pyridin-5-yl)acetic acid]: the IC50 stood at 0.106 µM. On the same count and under the same terms, the same measure for `Cc1ccc(-c2c([C@@H](OC(C)(C)C)C(=O)O)c(C)nc3c2ccn3Cc2ccc(F)cc2F)cc1` [Example 36, (R)-2-(tert-butoxy)-2-(1-(2,4-difluorobenzyl)-6-methyl-4-(p-tolyl)-1H-pyrrolo[2,3-b]pyridin-5-yl)acetic acid]: 50 µM; for `Cc1nc2c(ccn2Cc2ccc(F)c(F)c2)c(-c2ccc3c(c2C)CCCO3)c1[C@H](OC(C)(C)C)C(=O)O` (atropisomer, axis not shown; (M)) [Example 87, (2S)(M)-2-(tert-Butoxy)-2-(1-(3,4-difluorobenzyl)-6-methyl-4-(5-methylchroman-6-yl)-1H-pyrrolo[2,3-b]pyridin-5-yl)acetic acid]: 0.005 µM; for `Cc1nc2c(ccn2CC2CCN(C(=O)OC(C)(C)C)CC2)c(-c2ccc3c(c2)CCCO3)c1C(OC(C)(C)C)C(=O)O` (centres unmarked) [Example 66, 2-(tert-butoxy)-2-(1-((1-(tert-butoxycarbonyl)piperidin-4-yl)methyl)-4-(chroman-6-yl)-6-methyl-1H-pyrrolo[2,3-b]pyridin-5-yl)acetic acid]: 7.34 µM. In the case of `Cc1ccc(-c2c(C(OC(C)(C)C)C(=O)O)c(C)nc3c2ccn3Cc2ccc(C)c(F)c2)cc1` (centres unmarked) [Example 12, 2-(tert-butoxy)-2-(1-(3-fluoro-4-methylbenzyl)-6-methyl-4-(p-tolyl)-1H-pyrrolo[2,3-b]pyridin-5-yl)acetic acid], the IC50 was found to be 2.1 µM. In the case of `Cc1nc2c(ccn2Cc2ccc(F)c(F)c2)c(-c2ccc3c(c2Cl)NCCO3)c1[C@H](OC(C)(C)C)C(=O)O` (atropisomer, axis not shown; (M)) [Example 113, (2S)(2M)-2-(tert-Butoxy)-2-(4-(5-chloro-3,4-dihydro-2H-benzo[b][1,4]oxazin-6-yl)-1-(3,4-difluorobenzyl)-6-methyl-M-pyrrolo[2,3-b]pyridin-5-yl)acetic acid, Trifluoroacetic acid salt], the IC50 is 0.009 µM.

The same assay, now with this note: read-out: HIV MT4 Assay IC50; HTLV-1 transformed cell line MT-4; read-out 96 hours later with cell titer glo; 10 point dose response; Trifluoroacetic acid salt.
In the case of `Cc1nc2c(c3c(n2C)CCCC3)c(-c2ccc3c(c2C)NCCO3)c1[C@H](OC(C)(C)C)C(=O)O` (atropisomer, axis not shown; (M)) [Example 130, (2S)(M)-2-(tert-butoxy)-2-(2,9-dimethyl-4-(5-methyl-3,4-dihydro-2H-benzo[b][1,4]oxazin-6-yl)-6,7,8,9-tetrahydro-5H-pyrido[2,3-b]indol-3-yl)acetic acid, Trifluoroacetic acid salt], the IC50 turned out to be 0.01 µM.

The record behind these values is patent publication US8609653B2, “Azaindole compounds and methods for treating HIV” (priority 2011, dated 2013).
